Consider one compound from US20020119198A1, “Self-emulsifying drug delivery systems for extremely water-insoluble, lipophilic drugs” (priority 2000, published 2002).

Data set [1] is described as follows: Solubility of the active agent in a typical aqueous formulation. It is filed as physicochemical. The note with it: room temperature.
The nature of data set [2]: Solubility of the active agent in the formulation vehicle. It is filed as physicochemical.

Consider `Cc1cc(C)c(C=C2C(=O)Nc3ccccc32)[nH]1` [3-[(2,4-dimethylpyrrol-5-yl)methylene]-2-indolinone], for which the “solubility in a typical aqueous formulation” value in data set [1] was “approximately 10 nanograms per milliliter”. Besides, the “solubility, drug dissolved in vehicle” value is recorded as “about 15 mg/g” in data set [2] (vehicle free of polyvinylpyrrolidone) and “over 30 mg/g” in data set [2] (vehicle of the present invention (with polyvinylpyrrolidone)).
